Data: patent publication EP3498266A1, “FORMULATIONS OF COPANLISIB” (priority 2017, dated 2019)
Like-named read-outs stand apart in the source and are kept apart here.

Columns and labels:
[1] = Solubility of copanlisib dihydrochloride, flask method, HPLC; assay type: physicochemical; conditions: for Descriptive term: according to Ph. Eur./USP; for solubility at 19 h: 25 °C, thermodynamic from solid
Description: The suspension was centrifuged before HPLC analysis.

[2] = Hydrolytic (chemical) stability in aqueous solution, HPLC; assay type: physicochemical
Experimental: The different aqueous solutions (0.05 % copanlisib; after addition of 50 % 2-propanol, [buffer solution filtered with 0.5µm membrane filter]) were stored at 25°C and 70°C for 24 h and one week. An analytical HPLC-method has been developed to determine assay and organic impurities of copanlisib as well as degradation products. Table 2 : Results on hydrolytic stability of copanlisib

[3] = test system: indolent B-cell non-Hodgkin lymphoma
Experimental: Methods: Patients with indolent B-cell non-Hodgkin lymphoma (4 subtypes: follicular (FL), marginal zone (MZL), small lymphocytic (SLL) and lymphoplasmacytoid/Waldenström macroglobulinemia (LPL-WM)) and relapsed after, or refractory to, ≥2 prior lines of treatment were eligible. […] Copanlisib (60 mg, I.V.) was intermittently administered on days 1, 8 and 15 of a 28-day cycle.

[4] = full analysis set, 142 patients

SMILES: COc1c(OCCCN2CCOCC2)ccc2c1N=C(NC(=O)c1cnc(N)nc1)N1CCN=C21.Cl.Cl [copanlisib dihydrochloride, 2-amino-N-[7-methoxy-8-(3-morpholin-4-ylpropoxy)-2,3-dihydroimidazo[1,2-c]quinazolin-5-yl]pyrimidine-5-carboxamide dihydrochloride]
- Descriptive term ([1]; 0.1 M Hydrochloric acid): freely soluble
- solubility at 19 h ([1]; 0.1 M hydrochloric acid, simulated gastric fluid): 190 mg/mL
- solubility at 19 h ([1]; aqueous buffer, Buffer (citrate) pH 3): 250 mg/mL
- solubility at 19 h ([1]; aqueous buffer, Buffer (citrate) pH 4): 25 mg/mL
- solubility at 19 h ([1]; aqueous buffer, Buffer (citrate) pH 5): 0.62 mg/mL
- solubility at 19 h ([1]; aqueous buffer, Buffer (phosphate) pH 1): 510 mg/mL
- solubility at 19 h ([1]; aqueous buffer, Buffer (phosphate) pH 2): 250 mg/mL
- solubility at 19 h ([1]; aqueous buffer, Buffer (phosphate) pH 6): 0.001 mg/mL
- Descriptive term ([1]; Buffer (citrate) pH 3): freely soluble
- Descriptive term ([1]; Buffer (citrate) pH 4): soluble
- Descriptive term ([1]; Buffer (citrate) pH 5): very slightly soluble
- Descriptive term ([1]; Buffer (phosphate) pH 1): freely soluble
- Descriptive term ([1]; Buffer (phosphate) pH 2): freely soluble
- Descriptive term ([1]; Buffer (phosphate) pH 6): practically insoluble
- Descriptive term ([1]; Buffer (phosphate) pH 7): practically insoluble
- Descriptive term ([1]; Water): freely soluble
- solubility at 19 h ([1]; water): 230 mg/mL

SMILES: COc1c(OCCCN2CCOCC2)ccc2c1N=C(NC(=O)c1cnc(N)nc1)N1CCN=C21 [copanlisib, 2-amino-N-[7-methoxy-8-(3-morpholin-4-ylpropoxy)-2,3-dihydroimidazo[1,2-c]quinazolin-5-yl]pyrimidine-5-carboxamide]
- Appearance ([2]; 0.1M HCl, 1 week, 25°C): slightly colored solution
- Appearance ([2]; 0.1M HCl, 1 week, 70°C): slightly colored solution
- Appearance ([2]; 0.1M HCl, 24 h, 25°C): slightly colored solution
- Appearance ([2]; 0.1M HCl, 24h, 70°C): slightly colored solution
- Appearance ([2]; 0.1M HCl, Initial): slightly colored solution
- Appearance ([2]; 0.1 M NaOH, 1week, 25°C): slightly colored solution
- Appearance ([2]; 0.1 M NaOH, 1week, 70°C): slightly colored solution
- Appearance ([2]; 0.1 M NaOH, 24 h, 25°C): slightly colored solution
- Appearance ([2]; 0.1 M NaOH, 24h, 70°C): slightly colored solution
- Appearance ([2]; 0.1 M NaOH, Initial): slightly colored solution
- Appearance ([2]; Buffer pH 7, 1 week, 25°C): slightly colored turbid solution
- Appearance ([2]; Buffer pH 7, 1 week, 70°C): slightly colored solution
- Appearance ([2]; Buffer pH 7, 24 h, 25°C): slightly colored turbid solution
- Appearance ([2]; Buffer pH 7, 24 h, 70°C): slightly colored solution
- Appearance ([2]; Buffer pH 7, Initial): slightly colored turbid solution
- Appearance ([2]; Water, 1 week, 25°C): slightly colored solution
- Appearance ([2]; Water, 1 week, 70°C): slightly colored solution
- Appearance ([2]; Water, 24 h, 25°C): slightly colored solution
- Appearance ([2]; Water, 24h, 70°C): slightly colored solution
- Appearance ([2]; Water, Initial): slightly colored solution
- CR ([3]; FL subset): 14.4%
- ORR ([3]; FL subset): 58.7%
- PR ([3]; FL subset): 44.2%
- estimated Kaplan-Meier (KM) median duration of response ([3]; FL subset (range 0-687)): 370 days
- CR ([3]; MZL subset): 8.7%
- ORR ([3]; MZL subset): 69.6%
- PR ([3]; MZL subset): 60.9%
- AEs of interest: colitis ([3]; all grade): 0.7%
- AEs of interest: diarrhea ([3]; all grade): 18%
- AEs of interest: lung infection ([3]; all grade): 14%
- AEs of interest: neutropenia ([3]; all grade): 25%
- AEs of interest: pneumonitis ([3]; all grade): 7%
- treatment-related adverse events: hypertension ([3]; all grade): 29%
- treatment-related adverse events: transient hyperglycemia ([3]; all grade, 60 mg I.V. days 1, 8, 15 of 28-day cycle): 49%
- Laboratory toxicities: alanine aminotransferase ([3]; all-grade): 23%
- Laboratory toxicities: aspartate aminotransferase ([3]; all-grade): 28%
- Median overall survival ([3]; at the time of primary analysis): had not yet been reached
- complete response (CR) ([3]; full analysis set): 12.0%
- estimated Kaplan-Meier (KM) median duration of response ([3]; full analysis set (range 0-687)): 687 days
- colonic perforations [3, 4]: No colonic perforations occurred
- deaths [3, 4]: 6
- non-fatal opportunistic infections [3, 4]: two
- AEs of interest: colitis ([3]; human, in vivo): 0.7%
- AEs of interest: diarrhea ([3]; human, in vivo): 4%
- AEs of interest: lung infection ([3]; human, in vivo): 11%
- AEs of interest: neutropenia ([3]; human, in vivo): 19%
- AEs of interest: pneumonitis ([3]; human, in vivo): 1.4%
- Laboratory toxicities: alanine aminotransferase ([3]; human, in vivo): 19%
- Laboratory toxicities: aspartate aminotransferase ([3]; human, in vivo): 25%
- treatment-related adverse events: hypertension ([3]; human, in vivo): 23%
- treatment-related adverse events: transient hyperglycemia ([3]; human, in vivo): 40%
- deaths attributed to copanlisib ([3]; lung infection, respiratory failure, and a thromboembolic event): 3
- KM-estimate of median PFS ([3]; range 0-736): 340 days
